Laboratory results taken from US20230303540A1 (Merck Sharp & Dohme LLC, priority 2020, published 2023).

Target: GST-tagged truncated human mutant G2019S LRRK2 (Homo sapiens, UniProt Q5S007, G2019S)
Experiment: LRRK2 G2019S Km ATP LanthaScreen assay
Format: biochemical
Details: 134 μM ATP (Km ATP), LRRKtide substrate, mean IC50 values; read-out: LRRK2 pIC50 (converted)
Summary of the method: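 Compound preincubated 15 min at room temperature with enzyme in pH 8.5 Tris buffer (10 mM MgCl2). Then a 90 min reaction at ambient temperature with 134 μM (Km) ATP and fluorescein-LRRKtide. EDTA stop, Tb anti-phospho antibody TR-FRET; […]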

| SMILES | IC50 [nM] |
| --- | --- |
| CC1(N2CCN(c3nc4nc(Nc5cnn(CC(F)F)c5Cl)ncc4cc3Cl)CC2)COC1 [Ex-15.2, 6-chloro-N-[5-chloro-1-(2,2-difluoroethyl)-1H-pyrazol-4-yl]-7-[4-(3-methyloxetan-3-yl)piperazin-1-yl]pyrido[2,3-d]pyrimidin-2-amine] | 60.8 |
| CC1(N2CCN(c3cc4nc(Nc5cnn(CC6CC6(F)F)c5)ncc4cc3Cl)CC2)COC1 (stereo not drawn) [Ex-4.70, 6-chloro-N-{1-[(2,2-difluorocyclopropyl)methyl]-1H-pyrazol-4-yl}-7-[4-(3-methyloxetan-3-yl)piperazin-1-yl]quinazolin-2-amine] | 4.93 |
| Cc1c(Nc2ncc3ccc(N4C(=O)OC[C@H]4C)cc3n2)cnn1C1CCOCC1 [Ex-7.11, (4R)-4-methyl-3-(2-{[5-methyl-1-(oxan-4-yl)-1H-pyrazol-4-yl]amino}quinazolin-7-yl)-1,3-oxazolidin-2-one] | 9.35 |
| CO[C@H]1C[C@@H](n2ncc(Nc3ncc4cc(Cl)c(N5CCC(C)(O)CC5)cc4n3)c2C)C1 [Ex-6.14, 1-(6-chloro-2-{[1-(cis-3-methoxycyclobutyl)-5-methyl-1H-pyrazol-4-yl]amino}quinazolin-7-yl)-4-methylpiperidin-4-ol] | 1.65 |
| CC1(N2CCN(c3cc4nc(Nc5cnn(C6CC6(F)F)c5Cl)ncc4cc3Cl)CC2)CCOC1 (single isomer, unassigned) [Ex-3.60, (R or S) 6-chloro-N-(5-chloro-1-((S) or (R) 2,2-difluorocyclopropyl)-1H-pyrazol-4-yl)-7-(4-(3-methyltetra-hydrofuran-3-yl)piperazin-1-yl) quinazolin-2-amine] | 0.2 |
| CC1CCC12CN(c1cc3nc(Nc4cnn(C5(C)CC5)c4Cl)ncc3cc1Cl)C2 (single isomer, unassigned) [Ex-4.26, (R) or (S) 6-chloro-N-[5-chloro-1-(1-methylcyclopropyl)-1H-pyrazol-4-yl]-7-(5-methyl-2-azaspiro[3.3]heptan-2-yl)quinazolin-2-amine] | 9.09 |
| Cc1c(Nc2ncc3cc(Cl)c(N4CCN(C5COCC5O)CC4)cc3n2)cnn1CC(F)(F)F (single isomer, unassigned) [Ex-6.32, (3S,4S) or (3R,4R) 4-[4-(6-chloro-2-{[5-methyl-1-(2,2,2-trifluoroethyl)-1H-pyrazol-4-yl]amino}quinazolin-7-yl)piperazin-1-yl]oxolan-3-ol] | 0.608 |
| [2H]C([2H])([2H])n1nc(C(C)(C)n2nccn2)cc1Nc1ncc2cc(Cl)c(N3CCC(C)(O)CC3)cc2n1 [Ex-14.1, 1-(2-((3-(2-(2H-1,2,3-Triazol-2-yl)propan-2-yl)-1-(methyl-d3)-1H-pyrazol-5-yl)amino)-6-chloroquinazolin-7-yl)-4-methylpiperidin-4-ol] | 4.11 |
| CC1(N2CCN(c3cc4nc(Nc5cnn(CC6(C#N)CC6)c5)ncc4cc3Cl)CC2)COC1 [Ex-4.53, 1-{[4-({6-chloro-7-[4-(3-methyloxetan-3-yl)piperazin-1-yl]quinazolin-2-yl}amino)-1H-pyrazol-1-yl]methyl}cyclopropane-1-carbonitrile] | 1.82 |
| CC1(N2CCN(c3cc4nc(Nc5cnn(C6CC6(F)F)c5Cl)ncc4cc3Cl)CC2)COCC1O (single isomer, unassigned) [Ex-6.33, (3S,4S) or (3R,4R) 4-[4-(6-chloro-2-{[5-chloro-1-(2,2-(R) or (S)difluorocyclopropyl)-1H-pyrazol-4-yl]amino}quinazolin-7-yl)piperazin-1-yl]-4-methyloxolan-3-ol] | 0.212 |
| CC1(N2CCN(c3cc4nc(Nc5cnn(C6COC6)c5Cl)ncc4cc3Cl)CC2)COC1 [Ex-4.49, 6-chloro-N-[5-chloro-1-(oxetan-3-yl)-1H-pyrazol-4-yl]-7-[4-(3-methyloxetan-3-yl)piperazin-1-yl]quinazolin-2-amine] | 1.87 |
| CCn1ncc(Nc2ncc3ccc(N4C(=O)C5CCC4C5)cc3n2)c1C (stereo not drawn) [Ex-7.20, 2-{2-[(1-ethyl-5-methyl-1H-pyrazol-4-yl)amino]quinazolin-7-yl}-2-azabicyclo[2.2.1]heptan-3-one] | 11.3 |
| O=C1C2CCC(C2)N1c1ccc2cnc(Nc3ccn(CC(F)(F)F)n3)nc2c1 (stereo not drawn) [Ex-4.8, 2-(2-{[1-(2,2,2-trifluoroethyl)-1H-pyrazol-3-yl]amino}quinazolin-7-yl)-2-azabicyclo[2.2.1]heptan-3-one] | 8.95 |
| Cc1c(Nc2ncc3cc(Cl)c(N4CCN(C5(C)COCC5O)CC4)cc3n2)cnn1C1CC1(F)F (single isomer, unassigned) [Ex-6.40, (3S,4S) or (3R,4R) 4-[4-(6-chloro-2-{[1-(2,2-(R) or (S)difluorocyclopropyl)-5-methyl-1H-pyrazol-4-yl]amino}quinazolin-7-yl)piperazin-1-yl]-4-methyloxolan-3-ol] | 0.352 |
| CC1(O)CCN(c2cc3nc(Nc4cnn(C(C)(C)C#N)c4Cl)ncc3cc2Cl)CC1 [Ex-6.6, 2-(5-chloro-4-{[6-chloro-7-(4-hydroxy-4-methylpiperidin-1-yl)quinazolin-2-yl]amino}-1H-pyrazol-1-yl)-2-methylpropanenitrile] | 4.02 |
| CC1(O)CCN(c2cc3nc(Nc4cnn(C5(C)CC5)c4Cl)ncc3cc2Cl)CC1 [Ex-4.34, 1-(6-chloro-2-{[5-chloro-1-(1-methylcyclopropyl)-1H-pyrazol-4-yl]amino}quinazolin-7-yl)-4-methylpiperidin-4-ol] | 0.625 |
| Cn1ncc(Nc2ncc3ccc(N4C(=O)C5CCC4C5)cc3n2)c1C(F)(F)F (single isomer, unassigned) [Ex-4.5, 2-(2-{[1-methyl-5-(trifluoromethyl)-1H-pyrazol-4-yl]amino}quinazolin-7-yl)-2-azabicyclo[2.2.1]heptan-3-one] | 7.26 |
| C[C@]1(O)COCC12CCN(c1cc3nc(Nc4cnn(C5CC5)c4Cl)ncc3cc1Cl)CC2 [Ex-3.4] | 19.9 |
| CC1(n2ncc(Nc3ncc4cc(Cl)c(N5CC6(CN(CC(F)(F)F)C6)C5)cc4n3)c2Cl)CC1 [Ex-4.38, 6-chloro-N-[5-chloro-1-(1-methylcyclopropyl)-1H-pyrazol-4-yl]-7-[6-(2,2,2-trifluoroethyl)-2,6-diazaspiro[3.3]heptan-2-yl]quinazolin-2-amine] | 29.4 |
| Cc1cc2cnc(Nc3cnn(C4CC4)c3C)nc2cc1N1CCN(C2(C)COCC2O)CC1 (single isomer, unassigned) [Ex-5.4, (3S,4S) or (3R,4R) 4-(4-(2-((1-cyclopropyl-5-methyl-1H-pyrazol-4-yl)amino)-6-methylquinazolin-7-yl)piperazin-1-yl)-4-methyltetrahydrofuran-3-ol] | 0.18 |
| FC12CC(n3ncc(Nc4ncc5cc(Cl)c(N6CCNCC6)cc5n4)c3Cl)(C1)C2 [Ex-6.55, 6-chloro-N-(5-chloro-1-(3-fluorobicyclo[1.1.1]pentan-1-yl)-1H-pyrazol-4-yl)-7-(piperazin-1-yl)quinazolin-2-amine] | 2.11 |
| Cc1cc2cnc(Nc3cnn(C4CC4)c3C)nc2cc1N1CCN(C2COCC2O)CC1 (single isomer, unassigned) [Ex-5.7, (3S,4S) or (3R,4R) 4-(4-{2-[(1-cyclopropyl-5-methyl-1H-pyrazol-4-yl)amino]-6-methylquinazolin-7-yl}piperazin-1-yl)oxolan-3-ol] | 0.197 |
| OC1C2CC1CN(c1cc3nc(Nc4cnn(C5CC5)c4)ncc3cc1Cl)C2 (stereo not drawn) [Ex-3.28, 3-{6-chloro-2-[(1-cyclopropyl-1H-pyrazol-4-yl)amino]quinazolin-7-yl}-3-azabicyclo [3.1.1]heptan-6-ol] | 4.52 |
| Cc1c(Nc2ncc3cc(Cl)c(N4CCN(C5(C)COC5)CC4)cc3n2)cnn1CCF [Ex-4.12, 6-chloro-N-[1-(2-fluoroethyl)-5-methyl-1H-pyrazol-4-yl]-7-[4-(3-methyloxetan-3-yl)piperazin-1-yl]quinazolin-2-amine] | 0.625 |
| COCC12CC(n3cc(Nc4ncc5cc(Cl)c(N6CCC7(CC6)COC(CO)C7)cc5n4)cn3)(C1)C2 (single isomer, unassigned) [Ex-3.17, (R) or (S)-{8-[6-chloro-2-({1-[3-(methoxymethyl)bicyclo[1.1.1]pentan-1-yl]-1H-pyrazol-4-yl}amino)quinazolin-7-yl]-2-oxa-8-azaspiro[4.5]decan-3-yl}methanol] | 2.28 |
| CC1CCN1c1cc2nc(Nc3cnn(C4CN(CC(C)(C)O)C4)c3)ncc2cc1Cl (stereo not drawn) [Ex-4.10, 1-[3-(4-{[6-chloro-7-(2-methylazetidin-1-yl)quinazolin-2-yl]amino}-1H-pyrazol-1-yl)azetidin-1-yl]-2-methylpropan-2-ol] | 34.3 |
| Cc1c(Nc2ncc3cc(Cl)c(N4CCN(C5COCC5O)CC4)nc3n2)cnn1C1CC1 (single isomer, unassigned) [Ex-16.3, (3S,4S) or (3R,4R)-4-(4-{6-chloro-2-[(1-cyclopropyl-5-methyl-1H-pyrazol-4-yl)amino]pyrido[2,3-d]pyrimidin-7-yl}piperazin-1-yl)oxolan-3-ol] | 4.55 |
| Cc1c(Nc2ncc3ccc(N4C(=O)OC[C@@H]4C)cc3n2)cnn1C1C[C@@H](C)O[C@@H](C)C1 (single isomer, unassigned) [Ex-7.4] | 6.75 |
| CC(C)(O)Cn1ncc(Nc2ncc3cc(Cl)c(N4CCN(C5(C)COC5)CC4)cc3n2)c1Cl [Ex-4.51, 1-[5-chloro-4-({6-chloro-7-[4-(3-methyloxetan-3-yl)piperazin-1-yl]quinazolin-2-yl}amino)-1H-pyrazol-1-yl]-2-methylpropan-2-ol] | 2.76 |
| Cc1c(Nc2cc3cc(N4CCN([C@]5(C)COC[C@@H]5O)CC4)c(Cl)cc3cn2)cnn1C1CC1 (single isomer, unassigned) [Ex-1.1, (3R,4R) or (3S,4S) 4-(4-(7-chloro-3-((1-cyclopropyl-5-methyl-1H-pyrazol-4-yl)amino)isoquinolin-6-yl)piperazin-1-yl)-4-methyltetrahydrofuran-3-ol] | 0.716 |
